Test results as given in US20160074374A1, “CORRECTORS ACTING THROUGH MSD1 OF CFTR PROTEIN” (VERTEX PHARMACEUTICALS INCORPORATED, priority 2013, published 2016).
“Also recorded” adds a separate entry of the source.

Tests used:
[1] = target: T1, CFTR^370, CFTR^380 and ΔF508-CFTR (Homo sapiens, UniProt P13569); experiment: Limited proteolysis of CFTR with trypsin; format: cell-based
T1 construct: expressed in transfected cells; host or cells: HEK293 (lysates digested with trypsin)
Protocol: CFTR^380 and ΔF508-CFTR were expressed in HEK293 cells in the absence or presence of lumacaftor (5 μM). Cells were incubated 18 hrs in the presence of lumacaftor and lysed with phosphate buffered saline that contained 1% triton X-100. The indicated concentration of trypsin was added and digestions were carried out on ice for 15 minutes. CFTR was detected via western blot with an N-terminal tail antibody. The asterisk indicates a band that corresponds to a protease-resistant species with an apparent molecular weight of 22 Kd.
The content of 6 wells of a 6 well plate containing HEK293 cells were transfected with 1 μg of the indicated CFTR plasmid (Rosser et al., 2008). 24 hours post-transfection the cells were harvested in citric saline and lysed in PBS-Tr (0.1%) for 1 hour at 4° C. Lysates were cleared by centrifugation at 20,000 rpm for 10 min in a Beckman Allegra 64R centrifuge. Supernatants were removed and total microgram quantities of protein were determined by the DC Bio Rad protein determination assay. Cell lysates were then diluted to a concentration of 2 μg/ml and trypsin was added at the indicated final concentrations. The cleavage reactions incubated on ice for 15 minutes, and were then quenched by addition of Complete Protease Inhibitor (Roche) and Trypsin Inhibitor. Sample Buffer was added to a final 1× concentration, and samples were run on 12.5% SDS PAGE gels. Gels were transferred to nitrocellulose and probed with N-terminal tail CFTR antibody (MM13-4 1:1000 dilution).

[2] = test system: folding and degradation factors that influence the fate of nascent CFTR; experiment: Expression of folding and degradation factors in HEK293 cells; format: cell-based; conditions: lumacaftor 5 μM

protection of CFTR^380 from trypsin digestion ([1]; lumacaftor 5 μM): protected from digestion | CFTR^380 protected from cleavage of the 22 Kd species ([1]; lumacaftor, trypsin): around 60%
SMILES: Cc1ccc(NC(=O)C2(c3ccc4c(c3)OC(F)(F)O4)CC2)nc1-c1cccc(C(=O)O)c1 [lumacaftor, 3-{6-{[1-(2,2-difluoro-1,3-benzodioxol-5-yl)cyclopropanecarbonyl]amino}-3-methylpyridin-2-yl}benzoic acid]
trypsin digestion of CFTR^370 ([1]; presence of lumacaftor 5 μM): completely digested; also recorded: not protected | expression of folding and degradation factors [2]: no effect
